Biological target: T1, BRD4 (Homo sapiens, UniProt O60885)
T1 construct: Western blot masurement of BRD4 levels in LP1 cells treated for 16 h with; endogenous in cells; host or cells: LP1 and MM1S cells
Assay: Global proteomics / Western blot of BRD4 level
Format: cell-based
Conditions: LP1 and MM1S cells, 16 h, 1 μM; verified by Western blot
Method: cooperativity factor (α) was defined as the ratio of the IC50 values in the absence and […]
For the ternary complex experiments, the final assay composition was: 0.1 % DMSO, 5 nM GST-CBP, 5 nM CRBN-Avi(biotin), 100 mM KF, 0.625 nM XL665-Streptavidin conjugate and 0.8 nM anti-GST mAb – Eu3+-cryptate. The maximal control contained 40 nM dCBP-1, the blank contained no PROTAC. Hook curves were generated by normalization to the maximal control.
LP1 cells were cultured in DMEM (Gibco, 41966-029) supplemented with 15 % FBS (Sigma, F9665); MM1S and LNCaP cells in RPMI 1640 ATCC modification (Gibco, […]
DMEM/F12 (Gibco, 11320074) supplemented with 1 % non-essential amino acids […]
Quantification of CBP/EP300 degradation by Western blotting
LP1 cells plated on 6 well plates were treated with the stated compounds at a final concentration of 0.1 % DMSO for the stated time. […] Protein concentrations were determined using the Pierce ™ BCA Protein Assay Kit (Thermo Scientific, 23227) and equal amounts were separated on 4-12 % ExpressPl us™ PAGE gels (GenScript, M41215). […]
SuperSignal™ West Pico PLUS Chemiluminescent Substrate (Thermo Scientific, 34580) and the Vilber Fusion-FX7 imager. Bands were quantified using ImageJ software and protein levels normalized to protein from DMSO treated cells run on the same membrane. […]

Cc1cc2c(NC(=O)c3cc(NC(=O)CCCCCCCCCCNc4cccc5c4C(=O)N(C4CCC(=O)NC4=O)C5=O)cc(-c4ccn(C)n4)c3)cccc2nn1 (stereo not shown) [dCE-2]
level of BRD4: not changed
